Source: patent publication US20230122344A1, “ANTAGONISTS OF THE MUSCARINIC ACETYLCHOLINE RECEPTOR M4” (Vanderbilt University, priority 2019, published 2023)

Target: T1, Human M4 (Homo sapiens, UniProt P08173)
T1 construct: expressed in transfected cells; host or cells: CHO-K1 (ATCC), co-transfected with chimeric G protein Gqi5
T1 sequence (P08173 1-479): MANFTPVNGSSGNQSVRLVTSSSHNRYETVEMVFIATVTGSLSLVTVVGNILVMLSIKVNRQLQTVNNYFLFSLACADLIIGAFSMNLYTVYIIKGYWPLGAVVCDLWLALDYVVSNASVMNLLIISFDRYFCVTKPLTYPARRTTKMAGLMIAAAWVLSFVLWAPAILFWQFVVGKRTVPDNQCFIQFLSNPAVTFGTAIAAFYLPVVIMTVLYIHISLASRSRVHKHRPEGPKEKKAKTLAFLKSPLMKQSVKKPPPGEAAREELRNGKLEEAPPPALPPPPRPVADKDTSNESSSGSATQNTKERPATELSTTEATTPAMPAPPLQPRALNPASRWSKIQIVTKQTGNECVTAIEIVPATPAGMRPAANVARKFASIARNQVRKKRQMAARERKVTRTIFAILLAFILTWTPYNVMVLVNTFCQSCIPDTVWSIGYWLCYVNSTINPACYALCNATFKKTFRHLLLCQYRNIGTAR
Assay: mAChR M4 cell-based functional assay (calcium flux, antagonism of EC80 acetylcholine response)
Settings: M4/Gqi5/CHO-K1 cells; for remaining activity at 30 µM: CHO-K1, % ACh maximum at 30 μM, read-out: Human M4 Emin; for IC50: decrease of response elicited by EC80 acetylcholine
Description: Human or rat M4 cDNA, along with the chimeric G protein Gqi5, were transfected into Chinese hamster ovary (CHO-K1) cells purchased from the American Type Culture Collection using Lipofectamine2000. M4/Gqi5/CHO cells were grown in Ham's F-12 medium containing 10% heat-inactivated fetal bovine serum (FBS), 20 mM HEPES, 500 μg/mL G418 sulfate, and 200 μg/mL Hygromycin B.
For high throughput measurement of agonist-evoked increases in intracellular calcium, CHO-K1 cells stably expressing muscarinic receptors were plated in growth medium lacking G418 and hygromycin at 15,000 cells/20 μL/well in Greiner 384-well black-walled, tissue culture (TC)-treated, clear-bottom plates (VWR). Cells were incubated overnight at 37° C. and 5% CO2. The next day, cells were washed using an ELX 405 (BioTek) with assay buffer; the final volume was then aspirated to 20 μL. Next, 20 μL of a 2.3 μM stock of Fluo-4/acetoxymethyl ester (Invitrogen, Carlsbad, Calif.), prepared as a 2.3 mM stock in DMSO and mixed in a 1:1 ratio with 10% (w/v) Pluronic F-127 and diluted in assay buffer, was added to the wells and the cell plates were incubated for 50 min at 37° C. and 5% CO2. Dye was removed by washing with the ELX 405 and the final volume was aspirated to 20 μL. Compound master plates were formatted in a 10 point concentration-response curve (CRC) format (1:3 dilutions) in 100% DMSO with a starting concentration of 10 or 1 mM using a BRAVO liquid handler (Agilent). Test compound CRCs were then transferred to daughter plates (240 nL) using the Echo acoustic plate reformatter (Labcyte, Sunnyvale, Calif.) and then diluted into assay buffer (40 μL) to a 2× stock using a Thermo Fisher Combi (Thermo Fisher Scientific, Waltham, Mass.).
Calcium flux was measured using the Functional Drug Screening System (FDSS) 6000 or 7000 (Hamamatsu Corporation, Tokyo, Japan) as an increase in the fluorescent static ratio. Compounds were applied to cells (20 μL, 2×) using the automated system of the FDSS at 2 seconds into the protocol and the data were collected at 1 Hz. At 143 s, 10 μL of an EC20 concentration of the muscarinic receptor agonist acetylcholine was added (5×), followed by the addition of 12 μL of an EC80 concentration of acetylcholine at the 268 s time point (5×). Agonist activity was analyzed as a concentration-dependent increase in calcium mobilization upon compound addition. Positive allosteric modulator activity was analyzed as a concentration-dependent increase in the EC20 acetylcholine response. Antagonist activity was analyzed as a concentration-dependent decrease in the EC80 acetylcholine response; for the purposes of the tables herein, an IC50 (inhibitory concentration 50) was calculated as a concentration-dependent decrease of the response elicited by an EC80 concentration of acetylcholine. Concentration-response curves were generated using a four-parameter logistical equation in XLFit curve fitting software (IDBS, Bridgewater, N.J.) for Excel (Microsoft, Redmond, Wash.) or Prism (GraphPad Software, Inc., San Diego, Calif.) or the Dotmatics software platform (Dotmatics, Bishop's Stortford, UK).
Compounds were synthesized as described above. Activity (IC50 and Emin) was determined in the mAChR M4 cell-based functional assay as described above and the data are shown in Table 2.

SMILES | remaining activity at 30 µM | IC50
COc1cc(-c2ccc3nn(C)cc3c2C)nnc1N[C@H]1C[C@@H]2CN(CC3CCOCC3)C[C@@H]2C1 [compound 8, (3aR,5s,6aS)-N-(6-(2,4-dimethyl-2H-indazol-5-yl)-4-methoxypyridazin-3-yl)-2-((tetrahydro-2H-pyran-4-yl)methyl)octahydrocyclopenta[c]pyrrol-5-amine] | 4% | 2.04 nM
Cc1ccc(F)cc1-c1cc(S(C)(=O)=O)c(N[C@H]2C[C@@H]3CN(CC4CCOCC4)C[C@@H]3C2)nn1 [compound 9, (3aR,5s,6aS)-N-(6-(5-fluoro-2-methylphenyl)-4-(methylsulfonyl)pyridazin-3-yl)-2-((tetrahydro-2H-pyran-4-yl)methyl)octahydrocyclopenta[c]pyrrol-5-amine] | 3% | 18.4 nM
Cc1ccc(F)cc1-c1cc(-c2cc(F)ccc2C)c(N[C@H]2C[C@@H]3CN(CC4CCOCC4)C[C@@H]3C2)nn1 [compound 10, (3aR,5s,6aS)-N-(4,6-bis(5-fluoro-2-methylphenyl)pyridazin-3-yl)-2-((tetrahydro-2H-pyran-4-yl)methyl)octahydrocyclopenta[c]pyrrol-5-amine] | 3% | 384 nM
[2H]C([2H])(C1CCOCC1)N1C[C@H]2C[C@H](Nc3nnc(-c4cc(F)ccc4F)cc3C)C[C@H]2C1 [compound 11, (3aR,5s,6aS)-N-(6-(2,5-difluorophenyl)-4-methylpyridazin-3-yl)-2-((tetrahydro-2H-pyran-4-yl)methyl-d2)octahydrocyclopenta[c]pyrrol-5-amine] | 3% | 1 nM
Cc1ccc(F)cc1-c1nnc(N[C@H]2C[C@@H]3CN(CC4CCOCC4)C[C@@H]3C2)cc1C [compound 12, (3aR,5s,6aS)-N-(6-(5-fluoro-2-methylphenyl)-5-methylpyridazin-3-yl)-2-((tetrahydro-2H-pyran-4-yl)methyl)octahydrocyclopenta[c]pyrrol-5-amine] | 2% | 2.55 nM
Cc1cc(N[C@H]2C[C@@H]3CN(CC4CCOCC4)C[C@@H]3C2)nnc1-c1cc(F)ccc1F [compound 13, (3aR,5s,6aS)-N-(6-(2,5-difluorophenyl)-5-methylpyridazin-3-yl)-2-((tetrahydro-2H-pyran-4-yl)methyl)octahydrocyclopenta[c]pyrrol-5-amine] | 5% | 0.14 nM
Cc1cc(N[C@H]2C[C@@H]3CN(CC4CCOCC4)C[C@@H]3C2)nnc1-c1cc(F)ccc1Cl [compound 14, (3aR,5s,6aS)-N-(6-(2-chloro-5-fluorophenyl)-5-methylpyridazin-3-yl)-2-((tetrahydro-2H-pyran-4-yl)methyl)octahydrocyclopenta[c]pyrrol-5-amine] | 3% | 2.36 nM
Cc1cc(N[C@H]2C[C@@H]3CN(CC4CCOCC4)C[C@@H]3C2)nnc1-c1ccc2nn(C)cc2c1 [compound 15, (3aR,5s,6aS)-N-(5-methyl-6-(2-methyl-2H-indazol-5-yl)pyridazin-3-yl)-2-((tetrahydro-2H-pyran-4-yl)methyl)octahydrocyclopenta[c]pyrrol-5-amine] | 3% | 1.1 nM
Cc1cc(N[C@H]2C[C@@H]3CN(CC4CCOCC4)C[C@@H]3C2)nnc1-c1ccc2nn(C)cc2c1C [compound 16, (3aR,5s,6aS)-N-(6-(2,4-dimethyl-2H-indazol-5-yl)-5-methylpyridazin-3-yl)-2-((tetrahydro-2H-pyran-4-yl)methyl)octahydrocyclopenta[c]pyrrol-5-amine] | 3% | 1.08 nM
[2H]C([2H])(C1CCOCC1)N1C[C@H]2C[C@H](Nc3cc(C)c(-c4cc(F)ccc4F)nn3)C[C@H]2C1 [compound 17, (3aR,5s,6aS)-N-(6-(2,5-difluorophenyl)-5-methylpyridazin-3-yl)-2-((tetrahydro-2H-pyran-4-yl)methyl-d2)octahydrocyclopenta[c]pyrrol-5-amine] | 3% | 0.58 nM
[2H]C([2H])(C1CCOCC1)N1C[C@H]2C[C@H](Nc3cc(C)c(-c4cc(F)ccc4Cl)nn3)C[C@H]2C1 [compound 18, (3aR,5s,6aS)-N-(6-(2-chloro-5-fluorophenyl)-5-methylpyridazin-3-yl)-2-((tetrahydro-2H-pyran-4-yl)methyl-d2)octahydrocyclopenta[c]pyrrol-5-amine] | 3% | 0.44 nM
[2H]C([2H])(C1CCOCC1)N1C[C@H]2C[C@H](Nc3cc(C)c(-c4ccc5nn(C)cc5c4)nn3)C[C@H]2C1 [compound 19, (3aR,5s,6aS)-N-(5-methyl-6-(2-methyl-2H-indazol-5-yl)pyridazin-3-yl)-2-((tetrahydro-2H-pyran-4-yl)methyl-d2)octahydrocyclopenta[c]pyrrol-5-amine] | 4% | 1.62 nM
[2H]C([2H])(C1CCOCC1)N1C[C@H]2C[C@H](Nc3nnc(-c4cc(F)ccc4C)cc3C)C[C@H]2C1 [compound 20, (3aR,5s,6aS)-N-(6-(5-fluoro-2-methylphenyl)-4-methylpyridazin-3-yl)-2-((tetrahydro-2H-pyran-4-yl)methyl-d2)octahydrocyclopenta[c]pyrrol-5-amine] | 3% | 0.54 nM
[2H]C([2H])(C1CCOCC1)N1C[C@H]2C[C@H](Nc3nnc(-c4cccc(F)c4)cc3C)C[C@H]2C1 [compound 21, (3aR,5s,6aS)-N-(6-(3-fluorophenyl)-4-methylpyridazin-3-yl)-2-((tetrahydro-2H-pyran-4-yl)methyl-d2)octahydrocyclopenta[c]pyrrol-5-amine] | 3% | 1.22 nM
[2H]C([2H])(C1CCOCC1)N1C[C@H]2C[C@H](Nc3nnc(-c4ccc5nn(C)cc5c4)cc3C)C[C@H]2C1 [compound 22, (3aR,5s,6aS)-N-(4-methyl-6-(2-methyl-2H-indazol-5-yl)pyridazin-3-yl)-2-((tetrahydro-2H-pyran-4-yl)methyl-d2)octahydrocyclopenta[c]pyrrol-5-amine] | 4% | 1.82 nM
[2H]C([2H])(C1CCOCC1)N1C[C@H]2C[C@H](Nc3nnc(-c4ccc5nn(C)cc5c4C)cc3C)C[C@H]2C1 [compound 23, (3aR,5s,6aS)-N-(6-(2,4-dimethyl-2H-indazol-5-yl)-4-methylpyridazin-3-yl)-2-((tetrahydro-2H-pyran-4-yl)methyl-d2)octahydrocyclopenta[c]pyrrol-5-amine] | 3% | 0.59 nM
[2H]C([2H])(C1CCOCC1)N1C[C@H]2C[C@H](Nc3nnc(-c4ccccc4)cc3C)C[C@H]2C1 [compound 24, (3aR,5s,6aS)-N-(4-methyl-6-phenylpyridazin-3-yl)-2-((tetrahydro-2H-pyran-4-yl)methyl-d2)octahydrocyclopenta[c]pyrrol-5-amine] | 4% | 1.63 nM
